How the values were obtained:
hTLR9 = target: T1, hTLR9 (Homo sapiens, UniProt Q9NR96); set-up: host or cells: HEK; details: data disclosed in US20150105370; read-out: HEK/hTLR9 IC50; cited from earlier work
T1 sequence (Q9NR96 26-1032): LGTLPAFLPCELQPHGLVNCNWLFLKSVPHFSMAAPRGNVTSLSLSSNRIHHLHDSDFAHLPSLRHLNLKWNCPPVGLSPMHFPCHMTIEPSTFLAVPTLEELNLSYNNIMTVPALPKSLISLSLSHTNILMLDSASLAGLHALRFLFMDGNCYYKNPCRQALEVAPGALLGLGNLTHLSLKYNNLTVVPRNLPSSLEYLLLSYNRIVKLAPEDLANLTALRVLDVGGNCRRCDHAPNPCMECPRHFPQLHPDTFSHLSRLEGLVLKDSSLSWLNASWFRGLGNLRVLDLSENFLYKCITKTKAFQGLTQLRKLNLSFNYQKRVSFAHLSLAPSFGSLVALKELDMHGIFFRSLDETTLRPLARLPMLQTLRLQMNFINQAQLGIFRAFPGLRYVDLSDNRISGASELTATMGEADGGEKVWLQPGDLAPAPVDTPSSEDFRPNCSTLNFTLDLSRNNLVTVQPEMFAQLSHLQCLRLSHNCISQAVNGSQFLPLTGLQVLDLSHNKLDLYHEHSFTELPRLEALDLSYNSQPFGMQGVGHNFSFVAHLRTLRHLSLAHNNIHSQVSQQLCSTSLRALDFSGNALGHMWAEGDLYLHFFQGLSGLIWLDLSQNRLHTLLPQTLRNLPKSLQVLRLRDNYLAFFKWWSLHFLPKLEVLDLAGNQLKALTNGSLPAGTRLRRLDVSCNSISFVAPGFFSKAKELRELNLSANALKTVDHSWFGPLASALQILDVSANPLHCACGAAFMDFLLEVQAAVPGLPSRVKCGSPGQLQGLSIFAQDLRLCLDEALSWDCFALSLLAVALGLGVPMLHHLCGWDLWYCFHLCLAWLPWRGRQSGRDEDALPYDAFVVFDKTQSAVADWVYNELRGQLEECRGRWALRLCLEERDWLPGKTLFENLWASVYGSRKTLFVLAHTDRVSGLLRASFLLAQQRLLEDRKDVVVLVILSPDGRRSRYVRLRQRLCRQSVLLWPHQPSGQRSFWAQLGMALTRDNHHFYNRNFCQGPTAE

[1] = Human microsome stability assay; assay type: in vitro ADME; details: 1 µM test compound, 0.5 mg/mL liver microsomal protein, 37 °C
Experimental: The human microsomal stability assay is used for early assessment of metabolic stability of a test compound in human liver microsomes.
Human liver microsomes (Cat.NO.: 452117, Corning, USA;Cat.NO.:H2610, Xenotech, USA) were preincubated with test compound for 10 minutes at 37 °C in 100 mM potassium phosphate buffer, pH 7.4. The reactions were initiated by adding NADPH regenerating system. The final incubation mixtures contained 1 µM test compound, 0.5 mg/mL liver microsomal protein, 1 mM MgClz, 1 mM NADP, 1 unit/mL isocitric dehydrogenase and 6 mM isocitric acid in 100 mM potassium phosphate buffer, pH 7.4. After incubation times of 0, 3, 6, 9, 15 and 30 minutes at 37 °C, 300 µL of cold acetonitrile (including internal standard) was added to 100 µL incubation mixture to terminate the reaction. Following precipitation and centrifugation, the amount of compound remaining in the samples were determined by LC-MS/MS. Controls of no NADPH regenerating system at zero and 30 minutes were also prepared and analyzed. […] Table 6. Human liver microsome stability of the compounds of present invention

hERG channel = target: T2, hERG channel (Homo sapiens, UniProt Q12809); experiment: hERG channel inhibition assay (patch-clamp, CHO hERG cells); assay type: cell-based; details: for IC50 / IC20: CHO hERG cells, whole-cell patch-clamp; for IC20: human, CHO cells stably expressing hERG; for hERG IC20 / TLR7 IC50 / hERG IC20 / TLR9 IC50: safety ratio; for hERG IC20 / TLR7 IC50: TLR7 IC50 of ER compounds from Table 1; for hERG IC20 / TLR9 IC50: TLR9 IC50 of ER compounds from Table 1
T2 construct: expressed in transfected cells; host or cells: CHO (Chinese hamster ovary)
T2 sequence (Q12809 whole entry): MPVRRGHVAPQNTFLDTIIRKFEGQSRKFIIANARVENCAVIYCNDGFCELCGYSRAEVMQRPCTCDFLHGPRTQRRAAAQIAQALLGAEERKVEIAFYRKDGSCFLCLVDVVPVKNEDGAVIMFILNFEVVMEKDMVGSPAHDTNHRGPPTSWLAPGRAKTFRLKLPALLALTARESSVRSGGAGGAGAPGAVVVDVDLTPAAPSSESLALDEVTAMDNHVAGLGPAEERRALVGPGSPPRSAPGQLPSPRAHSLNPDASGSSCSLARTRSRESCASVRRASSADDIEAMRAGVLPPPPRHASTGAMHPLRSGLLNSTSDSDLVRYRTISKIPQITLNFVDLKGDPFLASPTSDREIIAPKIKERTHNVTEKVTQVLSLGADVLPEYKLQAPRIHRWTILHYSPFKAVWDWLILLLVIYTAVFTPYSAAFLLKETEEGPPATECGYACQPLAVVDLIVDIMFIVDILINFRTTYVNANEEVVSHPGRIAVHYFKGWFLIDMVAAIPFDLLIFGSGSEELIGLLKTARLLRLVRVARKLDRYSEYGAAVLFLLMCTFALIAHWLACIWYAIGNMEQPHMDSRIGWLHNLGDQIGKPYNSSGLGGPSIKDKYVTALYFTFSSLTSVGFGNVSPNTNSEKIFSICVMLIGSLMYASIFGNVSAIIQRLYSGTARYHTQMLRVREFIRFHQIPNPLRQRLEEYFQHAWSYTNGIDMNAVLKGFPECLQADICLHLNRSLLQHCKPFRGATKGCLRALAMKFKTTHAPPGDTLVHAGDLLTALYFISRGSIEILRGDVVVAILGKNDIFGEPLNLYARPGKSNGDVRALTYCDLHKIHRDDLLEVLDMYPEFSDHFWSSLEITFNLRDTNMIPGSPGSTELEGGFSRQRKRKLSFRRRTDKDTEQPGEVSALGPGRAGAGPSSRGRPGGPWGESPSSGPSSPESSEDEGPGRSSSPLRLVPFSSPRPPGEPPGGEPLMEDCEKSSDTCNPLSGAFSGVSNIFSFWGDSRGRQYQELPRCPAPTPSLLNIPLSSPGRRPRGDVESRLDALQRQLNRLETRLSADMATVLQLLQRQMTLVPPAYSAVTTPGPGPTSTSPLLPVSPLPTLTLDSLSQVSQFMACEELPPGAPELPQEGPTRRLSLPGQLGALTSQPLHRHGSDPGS
Experimental: The hERG K^+ channels were cloned in humans and stably expressed in a CHO (Chinese hamster ovary) cell line. CHOhERG cells were used for patch-clamp (voltage-clamp, whole-cell) experiments. Cells were stimulated by a voltage pattern to activate hERG channels and conduct IKhERG currents (rapid delayed outward rectifier potassium current of the hERG channel). After the cells were stabilized for a few minutes, the amplitude and kinetics of IKhERG were recorded at a stimulation frequency of 0.1 Hz (6 bpm). Thereafter, the test compound was added to the preparation at increasing concentrations. For each concentration, an attempt was made to reach a steady-state effect, usually, this was achieved within 3-10 min at which time the next highest concentration was applied. The amplitude and kinetics of IKhERG are recorded in each concentration of the drug which were compared to the control values (taken as 100%). (references: Redfern WS, Carlsson L, Davis AS, Lynch WG, MacKenzie I, Palethorpe S, Siegl PK, Strang I, Sullivan AT, Wallis R, Camm AJ, Hammond TG. 2003; Relationships between preclinical cardiac electrophysiology, clinical QT interval prolongation and torsade de pointes for a broad range of drugs: evidence for a provisional safety margin in drug development. Cardiovasc. Res. 58:32-45, Sanguinetti MC, Tristani-Firouzi M. 2006; hERG potassium channels and cardiac arrhythmia. Nature 440:463-469, Webster R, Leishman D, Walker D. 2002; Towards a drug concentration effect relationship for QT prolongation and torsades de pointes. Curr. Opin. Drug Discov. Devel. 5:116-26).
Table 3. hERG and safety ratio results

hTLR7 = target: T3, hTLR7 (Homo sapiens, UniProt Q9NYK1); set-up: host or cells: HEK; details: data disclosed in US20150105370; read-out: HEK/hTLR7 IC50; cited from earlier work
T3 sequence (Q9NYK1 27-1049): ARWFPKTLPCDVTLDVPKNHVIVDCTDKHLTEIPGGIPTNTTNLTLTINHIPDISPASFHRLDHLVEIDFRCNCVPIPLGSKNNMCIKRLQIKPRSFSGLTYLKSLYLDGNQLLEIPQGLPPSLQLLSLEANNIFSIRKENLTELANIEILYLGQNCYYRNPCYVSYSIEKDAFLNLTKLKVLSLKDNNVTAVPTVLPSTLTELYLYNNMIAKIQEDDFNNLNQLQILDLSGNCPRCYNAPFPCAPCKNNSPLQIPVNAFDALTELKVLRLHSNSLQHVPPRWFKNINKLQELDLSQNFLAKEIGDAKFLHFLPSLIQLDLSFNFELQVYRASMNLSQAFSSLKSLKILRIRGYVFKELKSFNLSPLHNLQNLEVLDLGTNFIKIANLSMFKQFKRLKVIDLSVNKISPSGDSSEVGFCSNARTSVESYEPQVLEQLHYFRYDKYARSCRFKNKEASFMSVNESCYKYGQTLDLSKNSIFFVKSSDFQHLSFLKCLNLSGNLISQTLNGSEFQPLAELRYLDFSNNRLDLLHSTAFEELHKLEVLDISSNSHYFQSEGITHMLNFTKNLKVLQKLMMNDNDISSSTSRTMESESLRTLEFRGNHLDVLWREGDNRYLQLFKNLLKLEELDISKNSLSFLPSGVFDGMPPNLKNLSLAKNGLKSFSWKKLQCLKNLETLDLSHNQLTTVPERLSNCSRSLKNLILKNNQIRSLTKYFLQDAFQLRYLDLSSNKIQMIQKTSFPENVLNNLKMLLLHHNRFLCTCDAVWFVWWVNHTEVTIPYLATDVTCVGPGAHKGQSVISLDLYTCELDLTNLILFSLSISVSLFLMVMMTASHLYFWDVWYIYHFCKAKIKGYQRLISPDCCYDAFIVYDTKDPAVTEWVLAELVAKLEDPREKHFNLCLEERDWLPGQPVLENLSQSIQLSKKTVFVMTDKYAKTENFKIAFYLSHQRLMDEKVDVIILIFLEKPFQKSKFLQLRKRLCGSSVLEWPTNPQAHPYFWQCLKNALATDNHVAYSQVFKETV

Structure (SMILES)	IC50 (hTLR9) [nM]	Clearance of Human microsome [1] [mL/min/kg]	IC50 (hERG channel) [nM]	IC20 (hERG channel) [nM]	hERG IC20 / TLR7 IC50 (hERG channel)	hERG IC20 / TLR9 IC50 (hERG channel)	IC50 (hTLR7) [nM]
C[C@@H]1CN(c2ccc(C#N)c3ncccc23)C[C@H](CN2CCN(c3ccccc3)CC2)O1 [ER-887258, reference compound]	> 2000	17.86	2780	687	8.1	0.3	85.2
C[C@@H]1CN(c2ccc(C#N)c3ncccc23)C[C@H](CN2CCN(c3ccccn3)CC2)O1 [ER-888285, reference compound]	> 2000	17.15	3110	1010	8.4	0.5	120
